# Measured values taken from article PMC8958505, “Discovery of Potential Neuroprotective Agents against Paclitaxel-Induced Peripheral Neuropathy” (Journal of Medicinal Chemistry, 2022).
# Structures can show the parent of a compound that is named as a salt.
# Tests used:
# [1] = test system: panel of selected 67 commercially available receptors and enzymes; experiment: 67 off-target study (LeadProfilingScreen), whole panel; type: binding; conditions: 10 μM
# From the text: (§1) LeadProfilingScreen (Total # of Assays: 67)
# (§2) To evaluate, in LeadProfilingScreen, the activity of test compound CN168 (Panlabs # 1251879). […]
# (§3) Summary of Significant Results
# (§4) Biochemical assay results are presented as the percent inhibition of specific binding or activity throughout the report.
# (§5) All other results are expressed in terms of that assay's quantitation method.
# (§6) • For primary assays, only the lowest concentration with a significant response judged by the assays' criteria, is […]
# (§7) • Where applicable, either the secondary assay results with the lowest dose/concentration meeting the significance […]
# (§8) • Unless otherwise requested, primary screening in duplicate with quantitative data (e.g., IC50 ± SEM, Ki ± SEM and nH) are shown where applicable for individual requested assays. In screening packages, primary screening in duplicate with semi-quantitative data (e.g., estimated IC50, Ki and nH) are shown where applicable (concentration range of 4 log units); available secondary functional assays are carried out ([…]) and MEC or MIC determined only if active in primary assays >50% at 1 log unit below initial test concentration. […]
# CYP 2C9 = target: T1, CYP 2C9 (Homo sapiens, UniProt P11712); experiment: Cytochrome P450 testing, CYP 2C9; type: in vitro ADME; conditions: diclofenac 4-hydroxylation; read-out: Concentration of inhibition (IC50), CYP 2C9
# T1 construct: host or cells: baculovirus-infected insect cells (supersomes)
# From the text: (§9) Cytochrome P450 testing of CN016
# (§10) The effects of CN016 on the activity of six specific human liver cytochrome P450 isozymes (CYP 1A2, 2C9, 2C19, 2D6, 2E1, 3A4) expressed in baculovirus-infected insect cell supersomes were studied. The reactions used to measure the activity of these enzymes were phenacetin O-deethylation (1A2), diclofenac 4-hydroxylation (2C9), mephenytoin 4-hydroxylation (2C19), dextromethorphan O-demethylation (2D6), chlorzoxazone 6-hydroxylation (2E1) and testosterone 6-hydroxylation (3A4).
# (§11) Furafylline, sulfaphenazole, tranylcypromine, quinidine, diethyldithiocarbamate and azamulin were used as reference inhibitors of these enzymes. Incubation mixtures containing no CN016 or reference inhibitors were used as controls. The tested result […]
# (§12) Table S4. Result of Cytochrome P450 testing of CN016
# hERG = hERG (Homo sapiens, UniProt Q12809); experiment: LeadProfilingScreen: Potassium Channel hERG; type: binding
# Phorbol Ester = experiment: LeadProfilingScreen: Phorbol Ester; type: binding, mouse; conditions: 10 μM
# [2] = test system: macrophages and microglia in DRG tissues; experiment: Immunofluorescence of macrophages and microglia in DRG tissues; type: in vivo, mouse; conditions: day 7
# Protocol: DRG tissues were isolated on day 7 after first paclitaxel injection. The tissues were fixed in 4% paraformaldehyde at 4 °C overnight and subsequently placed in 30% sucrose for sample dehydration. During the frozen section procedure, the tissues were embedded in OCT (EMS; #14120) and sectioned into 20 μm thick slices. The DRG tissue sections were permeabilized with 0.1% Triton X-100 in PBS for 1 h and then blocked with CAS-Block solution (#008120; Thermo Fisher, USA) at room temperature for another 1 h. DRG tissue sections were stained with primary antibody against CD68 (1:100 dilution; Novus), NOS2 (1:100 dilution; Santa Cruz), Arginase-1 (1:100 dilution; Santa Cruz), and Iba-1 (1:100 dilution; Santa Cruz) at 4 °C overnight. Afterward, the samples were washed with PBS and stained with secondary antibodies (Alexa-488, 594, 1:200 dilution; Invitrogen) and Hoechst 33342 (4 μg/mL; Invitrogen) at room temperature for 1 h. A 60× objective by an Olympus FV3000 confocal microscope was used to acquire immunofluorescence images.
# Glucocorticoid = Glucocorticoid (Homo sapiens, UniProt P04150); experiment: LeadProfilingScreen: Glucocorticoid; type: binding
# Potassium Channel [KATP] = Potassium Channel [KATP] (Cricetus cricetus, UniProt Q09427); experiment: LeadProfilingScreen: Potassium Channel [KATP]; type: binding, hamster; conditions: read-out: Inhibition (%), Potassium Channel [KATP]
# From the text: as §1, §2, §3, §4, §5, §6, §7, §8
# [3] = target: Transporter, Norepinephrine (NET) (Homo sapiens, UniProt P23975); experiment: LeadProfilingScreen: Transporter, Norepinephrine (NET); type: binding
# [4] = test system: GABAA, Flunitrazepam, Central; experiment: LeadProfilingScreen: GABAA, Flunitrazepam, Central; type: binding, rat; conditions: 10 μM
# [5] = target: Serotonin (5-Hydroxytryptamine) 5-HT3 (Homo sapiens, UniProt P46098); experiment: LeadProfilingScreen: Serotonin 5-HT3; type: binding
# [6] = test system: proinflammatory cytokines and chemokines; experiment: Systemic mouse cytokine and chemokine detection; type: in vivo; conditions: pretreatment; day 14 after first paclitaxel injection
# Protocol: Samples were obtained from C57BL/6J female mice before and 14 days after the first course of treatment. The blood samples were obtained from the submandibular vein and then centrifuged at 3000 rpm for 15 min at 4 °C to yield plasma. Mouse cytokines/chemokines were quantified using Magnetic Bead 32-Multiplex Panel (Millipore, MCYTMAG-70K-PX32). Statistical significance was analyzed using two-way ANOVA, with p < 0.05 considered significant.
# Thyroid Hormone = experiment: LeadProfilingScreen: Thyroid Hormone; type: binding, rat; conditions: 10 μM
# [7] = Pharmacokinetics after intravenous injection; type: in vivo; conditions: male, mouse, plasma, 5 mg/kg IV, ICR mice, mean ± SD (n = 3)
# Protocol: Male ICR mice weighed (29–33 g) were obtained from BioLASCO (Taiwan Co., Ltd., Ilan, Taiwan). The animal studies were performed according to NHRI institutional animal care and committee-approved procedures. Food and water were available ad libitum throughout the experiment. A single 5.0 mg/kg dose of CN016 was dissolved in normal saline and was separately administered to mice intravenously. The groups consisted of three mice for each time point. At times 0.03, 0.08, 0.25, 0.5, 1, 2, 4, 6, 8, 16, and 24 h after dosing, blood was collected from groups of three mice at each time point by cardiac puncture. Plasma was separated from blood and stored in a freezer (−80 °C) before LC/MS/MS analysis. In addition, pharmacokinetic analysis of CN016 following intraperitoneal administration (IP, 5 mg/kg) is provided in Figure S2 (Supporting Information).
# Adrenergic β1 = Adrenergic β1 (Homo sapiens, UniProt P08588); experiment: LeadProfilingScreen: Adrenergic β1; type: binding; conditions: read-out: Inhibition (%), Adrenergic β1
# From the text: as §1, §2, §3, §4, §5, §6, §7, §8
# CYP 1A2 = target: T2, CYP 1A2 (Homo sapiens, UniProt P05177); experiment: Cytochrome P450 testing, CYP 1A2; type: in vitro ADME; conditions: phenacetin O-deethylation; read-out: Concentration of inhibition (IC50), CYP 1A2
# T2 construct: host or cells: baculovirus-infected insect cells (supersomes)
# From the text: as §9, §10, §11, §12
# Muscarinic M3 = Muscarinic M3 (Homo sapiens, UniProt P20309); experiment: LeadProfilingScreen: Muscarinic M3; type: binding
# Muscarinic M3, sequence (P20309 whole entry): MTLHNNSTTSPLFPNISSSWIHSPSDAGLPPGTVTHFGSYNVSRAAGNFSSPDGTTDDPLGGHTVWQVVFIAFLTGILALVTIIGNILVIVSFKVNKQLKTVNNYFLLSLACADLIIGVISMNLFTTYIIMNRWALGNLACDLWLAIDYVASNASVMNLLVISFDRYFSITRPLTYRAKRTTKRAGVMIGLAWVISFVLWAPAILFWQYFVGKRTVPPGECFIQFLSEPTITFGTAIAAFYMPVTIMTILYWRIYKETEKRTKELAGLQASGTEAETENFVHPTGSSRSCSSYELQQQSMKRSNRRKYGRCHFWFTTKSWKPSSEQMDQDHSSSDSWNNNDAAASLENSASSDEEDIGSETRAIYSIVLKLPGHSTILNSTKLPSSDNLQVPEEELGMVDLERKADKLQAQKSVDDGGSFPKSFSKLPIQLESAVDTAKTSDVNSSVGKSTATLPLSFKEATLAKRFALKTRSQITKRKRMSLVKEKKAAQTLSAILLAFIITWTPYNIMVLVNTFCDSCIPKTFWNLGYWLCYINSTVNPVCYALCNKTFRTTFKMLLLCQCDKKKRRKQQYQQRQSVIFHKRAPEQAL
# Glucocorticoid, sequence (P04150 whole entry): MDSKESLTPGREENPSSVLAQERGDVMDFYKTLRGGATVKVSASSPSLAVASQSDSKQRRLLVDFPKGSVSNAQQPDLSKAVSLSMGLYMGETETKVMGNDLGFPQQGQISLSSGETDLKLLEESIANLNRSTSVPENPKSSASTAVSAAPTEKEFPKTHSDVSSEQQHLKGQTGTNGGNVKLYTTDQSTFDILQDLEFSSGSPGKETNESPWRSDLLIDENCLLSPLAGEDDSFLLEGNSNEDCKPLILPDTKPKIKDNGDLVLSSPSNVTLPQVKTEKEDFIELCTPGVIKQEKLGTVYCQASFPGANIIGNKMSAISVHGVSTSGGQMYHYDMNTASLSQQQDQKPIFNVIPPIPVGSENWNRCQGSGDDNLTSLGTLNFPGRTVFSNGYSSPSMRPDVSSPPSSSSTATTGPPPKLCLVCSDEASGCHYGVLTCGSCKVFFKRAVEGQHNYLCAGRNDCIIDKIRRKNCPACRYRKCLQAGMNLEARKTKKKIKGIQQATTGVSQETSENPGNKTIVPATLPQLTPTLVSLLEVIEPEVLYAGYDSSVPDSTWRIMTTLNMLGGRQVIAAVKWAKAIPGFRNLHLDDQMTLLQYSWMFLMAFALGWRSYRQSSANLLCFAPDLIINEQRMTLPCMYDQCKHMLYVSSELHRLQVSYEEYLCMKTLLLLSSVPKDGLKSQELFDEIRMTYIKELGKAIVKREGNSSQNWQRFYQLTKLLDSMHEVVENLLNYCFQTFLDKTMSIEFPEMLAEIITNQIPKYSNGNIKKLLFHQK
# T2 sequence (P05177 whole entry): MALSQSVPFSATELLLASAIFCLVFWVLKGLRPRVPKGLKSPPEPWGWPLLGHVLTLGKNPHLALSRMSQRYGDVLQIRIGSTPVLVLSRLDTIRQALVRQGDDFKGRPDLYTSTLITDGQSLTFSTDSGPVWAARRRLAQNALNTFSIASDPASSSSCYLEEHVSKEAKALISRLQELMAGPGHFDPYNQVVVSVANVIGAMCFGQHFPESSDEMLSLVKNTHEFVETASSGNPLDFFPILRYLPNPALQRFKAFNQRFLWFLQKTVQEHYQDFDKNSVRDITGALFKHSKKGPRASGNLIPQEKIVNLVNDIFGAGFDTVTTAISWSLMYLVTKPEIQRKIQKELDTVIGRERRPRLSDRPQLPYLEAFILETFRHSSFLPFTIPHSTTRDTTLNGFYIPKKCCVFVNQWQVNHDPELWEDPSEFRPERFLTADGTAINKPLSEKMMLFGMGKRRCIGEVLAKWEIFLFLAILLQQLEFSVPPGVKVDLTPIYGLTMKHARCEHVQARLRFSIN
# Serotonin (5-Hydroxytryptamine) 5-HT3, sequence (P46098 24-478): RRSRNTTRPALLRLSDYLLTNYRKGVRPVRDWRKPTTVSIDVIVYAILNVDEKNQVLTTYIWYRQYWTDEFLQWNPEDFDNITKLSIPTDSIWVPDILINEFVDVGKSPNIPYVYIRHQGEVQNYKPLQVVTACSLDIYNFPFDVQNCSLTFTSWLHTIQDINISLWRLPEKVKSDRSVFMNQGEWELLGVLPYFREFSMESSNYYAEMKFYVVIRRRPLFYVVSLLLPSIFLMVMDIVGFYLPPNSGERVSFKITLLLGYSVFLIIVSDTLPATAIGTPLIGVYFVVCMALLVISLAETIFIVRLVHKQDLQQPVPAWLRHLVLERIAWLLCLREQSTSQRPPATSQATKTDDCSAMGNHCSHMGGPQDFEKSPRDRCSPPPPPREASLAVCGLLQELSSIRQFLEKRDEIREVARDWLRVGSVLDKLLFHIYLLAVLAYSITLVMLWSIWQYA
# Adrenergic β1, sequence (P08588 whole entry): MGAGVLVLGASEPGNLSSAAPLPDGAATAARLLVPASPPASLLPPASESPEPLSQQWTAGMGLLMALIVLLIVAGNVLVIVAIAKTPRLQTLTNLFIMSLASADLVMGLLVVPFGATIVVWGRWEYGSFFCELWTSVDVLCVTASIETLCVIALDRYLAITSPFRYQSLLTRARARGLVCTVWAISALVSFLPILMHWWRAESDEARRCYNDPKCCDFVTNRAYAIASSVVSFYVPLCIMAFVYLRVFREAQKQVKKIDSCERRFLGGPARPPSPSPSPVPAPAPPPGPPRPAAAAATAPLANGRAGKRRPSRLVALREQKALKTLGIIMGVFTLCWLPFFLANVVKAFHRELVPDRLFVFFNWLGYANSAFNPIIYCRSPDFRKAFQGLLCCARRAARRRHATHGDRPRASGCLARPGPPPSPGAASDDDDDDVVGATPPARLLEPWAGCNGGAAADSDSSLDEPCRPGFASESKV
# Transporter, Norepinephrine (NET), sequence (P23975 whole entry): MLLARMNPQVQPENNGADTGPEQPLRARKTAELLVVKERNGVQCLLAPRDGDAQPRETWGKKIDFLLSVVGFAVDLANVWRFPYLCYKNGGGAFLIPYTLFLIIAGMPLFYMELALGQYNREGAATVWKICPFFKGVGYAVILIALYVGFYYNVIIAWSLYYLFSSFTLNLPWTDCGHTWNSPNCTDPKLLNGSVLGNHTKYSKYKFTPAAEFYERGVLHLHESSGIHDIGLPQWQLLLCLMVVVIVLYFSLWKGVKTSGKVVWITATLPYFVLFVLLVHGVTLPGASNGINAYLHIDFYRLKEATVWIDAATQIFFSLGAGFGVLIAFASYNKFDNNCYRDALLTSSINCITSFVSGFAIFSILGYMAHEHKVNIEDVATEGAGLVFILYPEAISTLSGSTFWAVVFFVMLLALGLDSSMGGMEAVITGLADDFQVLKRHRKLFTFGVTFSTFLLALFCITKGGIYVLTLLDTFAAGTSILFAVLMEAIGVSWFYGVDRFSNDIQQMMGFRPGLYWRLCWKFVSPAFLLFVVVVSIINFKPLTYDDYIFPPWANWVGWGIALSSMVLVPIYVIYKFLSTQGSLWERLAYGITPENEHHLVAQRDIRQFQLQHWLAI
# T1 sequence (P11712 whole entry): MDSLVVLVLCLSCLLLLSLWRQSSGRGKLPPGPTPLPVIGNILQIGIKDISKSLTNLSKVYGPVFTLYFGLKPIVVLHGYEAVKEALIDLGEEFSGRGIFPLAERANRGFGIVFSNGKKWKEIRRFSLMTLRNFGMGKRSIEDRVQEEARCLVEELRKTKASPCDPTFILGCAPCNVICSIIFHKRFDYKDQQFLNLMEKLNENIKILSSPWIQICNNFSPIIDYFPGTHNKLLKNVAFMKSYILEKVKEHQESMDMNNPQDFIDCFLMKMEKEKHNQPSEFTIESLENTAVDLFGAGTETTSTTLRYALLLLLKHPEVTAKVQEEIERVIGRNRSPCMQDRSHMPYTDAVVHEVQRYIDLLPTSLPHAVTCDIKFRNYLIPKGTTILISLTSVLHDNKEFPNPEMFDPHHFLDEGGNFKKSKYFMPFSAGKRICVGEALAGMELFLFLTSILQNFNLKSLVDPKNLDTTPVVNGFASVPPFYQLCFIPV
structure (smiles),measurement,setting,value
"O=P(O)(O)CCN1CCC(Nc2cc(N3CCOCC3)nc(NCc3cn(CCCO)nn3)n2)CC1 [CN016, {2-[4-(2-{[1-(3-Hydroxy-propyl)-1H-[1,2,3]triazol-4-ylmethyl]-amino}-6-morpholin-4-yl-pyrimidin-4-ylamino)-piperidin-1-yl]-ethyl}-phosphonic Acid Hydrobromide Salt]",Significant responses (≥ 50% inhibition or stimulation) in the primary assays,[1],No significant results noted
same,inhibitory activity for each tested item of the 67 panel,[1],< 20%
same,IC50,CYP 2C9,> 100 µM
same,inhibition at 10 µM,hERG,-3%
same,"Inhibition (%), Phorbol Ester",Phorbol Ester,-3%
same,infiltration of M1 and M2 macrophages in DRG tissues,[2]; CN016 10 or 20 mg/kg before paclitaxel,significantly diminished
same,paclitaxel-induced M1 and M2 macrophages recruitment,[2]; CN016 low dosage,failed to inhibit
same,paclitaxel-induced activation of M1 microglia in DRG neurons,[2],dramatically reduce
same,inhibition at 10 µM,Glucocorticoid,14%
same,inhibition at 10 µM,Potassium Channel [KATP],-1%
same,inhibition at 10 µM,[3],-1%
same,"Inhibition (%), GABAA, Flunitrazepam, Central",[4],-5%
same,inhibition at 10 µM,[5],-1%
same,proinflammatory cytokines and chemokines in plasma,[6],significant decrease
same,"Inhibition (%), Thyroid Hormone",Thyroid Hormone,7%
same,AUC(0-t) at 24 h,[7],6980 ± 1850 ng·h/mL
same,clearance at 24 h,[7],12.8 ± 2.9 mL/min/kg
same,half-life at 24 h,[7],12.8 ± 3.4 h
same,Vd at 24 h,[7]; read-out: Vss,0.8 ± 0.5 L/kg
same,inhibition at 10 µM,Adrenergic β1,4%
same,IC50,CYP 1A2,> 100 µM
same,inhibition at 10 µM,Muscarinic M3,0%
